In brackets after ≈: the same amount, converted by molar mass.
Key:
Cryptococcus neoformans [1] = details: reference value; organism not given; cited from earlier work
Pseudomonas aeruginosa = experiment: MIC in liquid culture, P. aeruginosa; type: cell-based; details: for MIC, P. aeruginosa: Table 1; for antimicrobial effect: strain PAO1, paper disk and MIC studies
Protocol: (§1) To determine the antimicrobial potential of the two generations (G1—based on SbPh4-core, and G2—based on SbMe3-core) of newly synthesized Sb(V) cyanoximates, several representative compounds were first selected and their antimicrobial properties tested by using disk diffusion assays, The minimal inhibitory concentrations (MIC) of selected compounds were also determined in liquid cultures. Three bacterial and two fungal pathogens were used as target microorganisms. Bacterial pathogens included Gram-negative Pseudomonas aeruginosa and Gram-positive Staphylococcus aureus, representing the ESKAPE group of human pathogens known for their high virulence and antibiotic resistance.
(§2) MIC of the 3rd generation compounds, as well as complete MIC measurements for the 2nd generation Sb(V) compounds, are determined. A dilution assay in a 96-well-plate format, the gold standard for measuring MICS recommended by the Clinical Laboratory Standards Institute (CLSI), is utilized. Prior to plate inoculation, bacterial cultures of P. aeruginosa PAO1, S. aureus NRS70, E. foecium CC17, and E. coli S17 are grown in Mueller Hinton Broth (MHB) to middle log phase as determined by the individual growth curves and diluted to obtain absorbance at 600 nm of 0.1. These normalized cultures are diluted 1:100 using MHB and inoculated into the fresh medium with serially diluted Sb(V) compounds in 96-well plates. The plates are incubated for 24 h at 37° C. For fungal pathogens, cultures of Cryptococcus neoformans strain H99 and Candida albicans strain SC5314 are grown to stationary phase in YPD medium for 18 h at 30° C. Following incubation, fungal cells are centrifuged, washed three times with PBS, and then counted with trypan blue exclusion. Each compound is screened using a microdilution assay with 0.5×10^3 fungal cells in RPMI-MOPS medium at 35° C. for 48 h. Following incubations for bacterial or fungal pathogens, the OD600 is measured using a Biotek Synergy HT microtiter plate reader ([…].). The MIC is defined as the lowest concentration that inhibits growth. An aliquot from the clear wells from the MIC assay is plated on agar to determine minimum bactericidal concentration (MBC) or minimum fungicidal concentration (MFC). Each experiment is based on at least three biological replicates and repeated for consistency. The MIC and MBC for each compound is compared to those obtained for clinically applied antibiotics/antifungals. For bacterial pathogens, the corresponding antibiotics, such as tobramycin (P. aeruginosa), trimethoprim (S. aureus), gentamicin (E. coli) and ampicillin (E. foecium), are used. For fungal pathogens, the data is compared to the antifungal drugs Amphotericin B and Caspofungin for C. neoformans and C. albicans, respectively, by using the CLSI method.
(§3) Two different types of antimicrobial studies were performed: 1) paper disk studies during growth on solid media; and 2) MIC determination during growth in liquid media. […] Antifungal disk assays concluded that Sb(Ph)4 (ECO) was effective against Cryptococcus neoformans and Candida albicans. […] For MIC assays, Sb(Ph)4 (MCO), the Sb(V) cyanoximate, was tested, along with the free cyanoximes H(MCO), H(ECO), and Na[H(ACO)2].
(§4) MIC assays: The MIC assay protocol utilized for determination of the effects of various organoantimony(V) cyanoximate compounds in various bacteria is shown in FIG. 16. Each solubilized in DMSO at 5 mg/ml, starting concentration is 100 μg/ml. Error bars represent standard error of the mean (if none, the values were identical in each experiment). Untested compounds have no bar. Bars reaching 100 μg/ml were not considered to have antifungal activity.

Candida albicans [2] = experiment: MIC assay, C. albicans; type: cell-based; details: Table 1
Protocol: (§5) To determine the antifungal properties of the two groups of Sb(V) cyanoximaes, Cryptococcus neoformans and Candida albicans, both of which are deadly human pathogens, were tested.
as §2
(§6) Second, the compounds were dissolved in DMSO to […], and their minimal inhibitory concentration (MIC) was determined against C. neoformans and C. albicans. Starting concentration used was 100 μg/ml, and then diluted 1:2.
as §4

Cryptococcus neoformans [3] = experiment: MIC assay, C. neoformans; type: cell-based; details: Table 1
Protocol: as §5, §2, §6, §4

Candida albicans [4] = experiment: Antifungal disk diffusion assay, C. albicans; type: cell-based; details: solid compound on paper disk
Protocol: as §5
(§7) First, solid state powder compounds were deposited on paper disks and tested against two fungi: Cryptococcus neoformans and Candia albicans. Each experiment was conducted in triplicate with each compound at each concentration of deposited solid compound. The control was a blank paper (100% cotton disk).
(§8) Disk diffusion assays: No inhibition of Cryptococcus neoformans or Candida albicans for the following organoantimony(V) cyanoximate compounds at any concentration (S, ×2, ×4): H(ACO), H(ECO), H(MCO).

Escherichia coli = experiment: MIC in liquid culture, E. coli; type: cell-based; details: for MIC, E. coli: Table 1; for antimicrobial effect: strain S17, paper disk and MIC studies
Protocol: as §1, §2, §3, §4

Cryptococcus neoformans [5] = experiment: Antifungal disk diffusion assay, C. neoformans; type: cell-based; details: solid compound on paper disk
Protocol: as §5, §7, §8

[6] = system: Staphylococcus aureus MRSA; experiment: Broth dilution assay, S. aureus MRSA; type: cell-based; details: multi-drug resistant strain, FIG. 20
Text: As shown in FIGS. 20-21, compounds containing Sb display higher bactericidal activity against Gram positive Staphylococcus aureus (FIG. 20) than Gram negative E. coli (FIG. 21). […] In addition, 25-40% reduction of growth was also observed for Sb(Ph4)Br, Sb(Ph4)ECO, Sb(Ph4)ACO, and Sb(Ph4)TCO against Gram negative E. coli (FIG. 21).

Staphylococcus aureus = experiment: MIC in liquid culture, S. aureus; type: cell-based; details: for antimicrobial effect: Methicillin-resistant strain NRS70, paper disk and MIC studies; for MIC, S. aureus: Table 1
Protocol: as §1, §2, §3, §4

Row | SMILES | MIC concentration (for reference) (Cryptococcus neoformans [1]) [mg/L] | MIC, P. aeruginosa (Pseudomonas aeruginosa) [mg/L] | antimicrobial effect (Pseudomonas aeruginosa) | MIC, C. albicans (Candida albicans [2]) [mg/L] | MIC, C. neoformans (Cryptococcus neoformans [3]) [mg/L] | antifungal activity / zone of inhibition in disk assay (Candida albicans [4]) | MIC, E. coli (Escherichia coli) [mg/L] | antimicrobial effect (Escherichia coli) | antifungal activity / zone of inhibition in disk assay (Cryptococcus neoformans [5]) | bactericidal activity [6] | antimicrobial effect (Staphylococcus aureus) | MIC, S. aureus (Staphylococcus aureus) [mg/L]
1 | C[C@@H]1[C@H](O)[C@@H](C)/C=C/C=C/C=C/C=C/C=C/C=C/C=C/[C@H](O[C@@H]2O[C@H](C)[C@@H](O)[C@H](N)[C@@H]2O)C[C@@H]2O[C@](O)(C[C@@H](O)C[C@@H](O)[C@H](O)CC[C@@H](O)C[C@@H](O)CC(=O)O[C@H]1C)C[C@H](O)[C@H]2C(=O)O [Amphotericin B] | 0.5 (≈ 0.541 µM) | – | – | – | – | – | – | – | – | – | – | –
2 | CCOC(=O)C(C#N)=N[O][Sb]([c]1ccccc1)([c]1ccccc1)([c]1ccccc1)[c]1ccccc1 [SbPh4ECO] | – | 150 | significant antimicrobial effect | 31.2 | 10.9 | effective | >200 | significant antimicrobial effect | effective | significant bactericidal activity | significant antimicrobial effect | 150
3 | N#CC(=N[O][Sb]([c]1ccccc1)([c]1ccccc1)([c]1ccccc1)[c]1ccccc1)C(N)=S [SbPh4TCO] | – | >200 | essentially no antimicrobial activity | 100 | 25 | followed in antifungal activity against both strains | >200 | essentially no antimicrobial activity | followed in antifungal activity against both strains | significant bactericidal activity | significant effects | 100

Source: patent US20240172756A1, “ORGANOANTIMONY(V) C[…] AND METHODS OF PRODUCTION AND USE THEREOF” (priority 2021, published 2024)
